Measured values reported in article PMC10708540, “Determination and Kinetic Characterization of a New Potential Inhibitor for AmsI Protein Tyrosine Phosphatase from the Apple Pathogen Erwinia amylovora” (Molecules, 2023).

How the values were obtained:
[1] = target: T1, EaAmsI (AmsI, Low Molecular Weight Protein Tyrosine Phosphatase) (Erwinia amylovora, UniProt Q46630); assay: pNPP hydrolysis at […] nm, Michaelis-Menten global fit with competitive inhibition model; format: biochemical
T1 construct: recombinant EaAmsI (gene from strain Ea273, pETM-11 vector)
T1 sequence (Q46630 whole entry): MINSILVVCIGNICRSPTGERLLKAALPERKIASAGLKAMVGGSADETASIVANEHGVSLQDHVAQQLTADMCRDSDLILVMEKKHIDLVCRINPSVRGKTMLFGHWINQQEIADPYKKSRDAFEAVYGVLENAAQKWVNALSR

[2] = target: T1, EaAmsI (AmsI, Low Molecular Weight Protein Tyrosine Phosphatase); assay: pNPP hydrolysis, dose-response IC50; format: biochemical
[3] = tested on: O=[N+]([O-])c1ccc(OP(=O)(O)O)cc1; assay: purified protein

CCCCCCCO[C@@H]1O[C@H](CO)[C@@H](O)[C@H](O)[C@H]1O [N7G, (2R,3R,4S,5S,6R)-2-(heptyloxy)-6-(hydroxymethyl)oxane-3,4,5-triol]
Ki [1]: 0.0078 ± 0.0006 mM

CCCCCCCCO[C@@H]1O[C@H](CO)[C@@H](O)[C@H](O)[C@H]1O [N8G, (2R,3S,4S,5R,6R)-2-(hydroxymethyl)-6-(octyloxy)oxane-3,4,5-triol]
IC50 [2]: 9.5 ± 1.3 mM

EaAmsI (AmsI, Low Molecular Weight Protein Tyrosine Phosphatase) (Erwinia amylovora)
Km [3]: 15.1 ± 1.3 mM
